Marks after values point to notes of the source that are not given here.

For the first assay, the target named is T1, hMAO-A (Homo sapiens, UniProt P21397).
T1 sequence (P21397 1-527): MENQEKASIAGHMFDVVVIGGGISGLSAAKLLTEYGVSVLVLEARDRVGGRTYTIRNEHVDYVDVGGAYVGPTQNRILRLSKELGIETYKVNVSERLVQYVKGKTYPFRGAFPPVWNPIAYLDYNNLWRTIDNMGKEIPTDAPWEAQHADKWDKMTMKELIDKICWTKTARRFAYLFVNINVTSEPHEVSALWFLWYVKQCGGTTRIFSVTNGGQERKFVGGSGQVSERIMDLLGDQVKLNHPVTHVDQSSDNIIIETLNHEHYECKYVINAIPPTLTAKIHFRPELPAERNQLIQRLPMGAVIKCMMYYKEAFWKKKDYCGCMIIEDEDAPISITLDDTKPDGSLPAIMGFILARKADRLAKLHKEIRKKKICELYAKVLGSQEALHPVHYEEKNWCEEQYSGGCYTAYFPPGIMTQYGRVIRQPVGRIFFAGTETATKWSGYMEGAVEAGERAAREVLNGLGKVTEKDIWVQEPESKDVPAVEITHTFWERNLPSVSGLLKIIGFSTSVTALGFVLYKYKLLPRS
Put plainly: Inhibition of human recombinant MAO A (Amplex Red assay).
Details: not given
Broadly, the IC50 is the midpoint of a concentration-inhibition curve. As for `Cc1ccc(C2=NO[C@@H](c3ccc(Cl)c(Cl)c3)C2)cc1` [R-(−) EMAC II l], the 50% inhibitory concentration (IC50) was more than 100000 nM.
For `Cc1ccc(C2=NO[C@H](c3ccc(Cl)c(Cl)c3)C2)cc1` [S-(+) EMAC II l], the IC50 is more than 100000 nM.
Consider `Cc1ccc(C2=NOC(c3ccc(Cl)cc3)C2)cc1` (centres unmarked) [EMAC II i], for which the concentration for half-maximal inhibition (IC50) was more than 100000 nM.
Turning to `Cc1ccc(C2=NO[C@@H](c3ccc(Cl)cc3)C2)cc1` [R-(−) EMAC II i], the half-maximal inhibitory concentration (IC50) is more than 100000 nM.

The assay is the same for the next values; noted with them: read-out: MAO-A (IC50); Table 3, highest concentration tested.
For `Cc1ccc(C2=NOC(c3ccc(F)cc3)C2)cc1` (racemic) [EMAC II k], the half-inhibitory concentration (IC50) is more than 100000 nM.
Turning to `Cc1ccc(C2=NOC(c3ccc(C)cc3)C2)cc1` (racemic) [EMAC II j], the half-maximal inhibitory concentration (IC50) is more than 100000 nM.
Regarding `Cc1ccc(C2=NOC(c3ccc(Cl)c(Cl)c3)C2)cc1` (racemic) [EMAC II l], the IC50 is more than 100000 nM.
For the compound `COc1ccc(C2CC(c3ccc(C)cc3)=NO2)cc1` (racemic) [EMAC II m], the IC50 was more than 100000 nM.

The assay is the same for the next values; noted with them: read-out: MAO-A (IC50); Table 4, single enantiomers.
For the compound `Cc1ccc(C2=NO[C@@H](c3ccc(F)cc3)C2)cc1` [R-(−) EMAC II k], the IC50 is more than 100000 nM.
Consider `COc1ccc([C@@H]2CC(c3ccc(C)cc3)=NO2)cc1` [S-(+) EMAC II m], for which the IC50 was more than 100000 nM.
Take `Cc1ccc(C2=NO[C@H](c3ccc(Cl)cc3)C2)cc1` [S-(+) EMAC II i]: the IC50 is more than 100000 nM.
Consider `Cc1ccc(C2=NO[C@H](c3ccc(C)cc3)C2)cc1` [S-(+) EMAC II j], for which the IC50 is more than 100000 nM.
For `Cc1ccc(C2=NO[C@@H](c3ccc(C)cc3)C2)cc1` [R-(−) EMAC II j], the IC50 is more than 100000 nM.
On to `Cc1ccc(C2=NO[C@H](c3ccc(F)cc3)C2)cc1` [S-(+) EMAC II k], for which the 50% inhibitory concentration (IC50) was more than 100000 nM.
With `COc1ccc([C@H]2CC(c3ccc(C)cc3)=NO2)cc1` [R-(−) EMAC II m], the IC50 is more than 100000 nM.

The target of another assay is T2, hMAO-B (Homo sapiens, UniProt P27338).
T2 sequence (P27338 1-520): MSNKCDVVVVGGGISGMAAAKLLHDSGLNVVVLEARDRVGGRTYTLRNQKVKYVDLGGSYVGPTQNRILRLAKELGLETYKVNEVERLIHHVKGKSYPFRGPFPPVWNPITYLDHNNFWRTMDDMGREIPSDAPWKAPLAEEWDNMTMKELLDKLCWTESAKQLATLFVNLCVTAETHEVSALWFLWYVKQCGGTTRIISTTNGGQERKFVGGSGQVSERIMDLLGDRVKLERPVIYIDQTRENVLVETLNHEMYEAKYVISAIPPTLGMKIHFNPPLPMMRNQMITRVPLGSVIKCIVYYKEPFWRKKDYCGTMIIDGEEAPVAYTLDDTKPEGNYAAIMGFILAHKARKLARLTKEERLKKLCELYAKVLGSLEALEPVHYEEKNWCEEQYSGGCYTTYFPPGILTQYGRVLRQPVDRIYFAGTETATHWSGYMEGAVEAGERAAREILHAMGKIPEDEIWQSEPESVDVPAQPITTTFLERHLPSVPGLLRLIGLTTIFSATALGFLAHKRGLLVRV
Put plainly: Inhibition of human recombinant MAO B (Amplex Red assay).
Details: not given
`Cc1ccc(C2=NO[C@@H](c3ccc(Cl)c(Cl)c3)C2)cc1` [R-(−) EMAC II l]: the “selectivity towards MAO B, increase of the enantiomer versus the racemic mixture” value was “increased by more than six folds”.
For the compound `Cc1ccc(C2=NOC(c3ccc(Cl)cc3)C2)cc1` (centres unmarked) [EMAC II i], the half-inhibitory concentration (IC50) was determined as 104 ± 3.69 nM.
For `Cc1ccc(C2=NO[C@@H](c3ccc(Cl)cc3)C2)cc1` [R-(−) EMAC II i], the IC50 was 15.3 ± 0.95 nM.

The assay is the same for the next values; noted with them: Table 3; bounds assume IC50 against MAO-A is the highest concentration tested (100 μM).
Turning to `Cc1ccc(C2=NOC(c3ccc(F)cc3)C2)cc1` (racemic) [EMAC II k], the “Ratio, selectivity ratios [IC50(MAO-A)]/[IC50(MAO-B)]” value (“Ratio, selectivity ratios” below) is >312^d.
As to `Cc1ccc(C2=NOC(c3ccc(C)cc3)C2)cc1` (racemic) [EMAC II j], the “Ratio, selectivity ratios” value was >2436^d.
In the case of `Cc1ccc(C2=NOC(c3ccc(Cl)cc3)C2)cc1` (centres unmarked) [EMAC II i], the “Ratio, selectivity ratios” value is >961^d.
With `Cc1ccc(C2=NOC(c3ccc(Cl)c(Cl)c3)C2)cc1` (racemic) [EMAC II l], the “Ratio, selectivity ratios” value was >8354^d.
As for `COc1ccc(C2CC(c3ccc(C)cc3)=NO2)cc1` (racemic) [EMAC II m], the “Ratio, selectivity ratios” value is on record as >222^d.

The assay is the same for the next values; noted with them: Table 4, single enantiomers; assumes the inactive isoform IC50 is the highest concentration tested (100 μM).
In the case of `Cc1ccc(C2=NO[C@@H](c3ccc(F)cc3)C2)cc1` [R-(−) EMAC II k], the Ratio is recorded as 333.5^b.
With `Cc1ccc(C2=NO[C@@H](c3ccc(Cl)c(Cl)c3)C2)cc1` [R-(−) EMAC II l], the Ratio is 52 910^b.
On the same count and under the same terms, as for `Cc1ccc(C2=NO[C@H](c3ccc(Cl)c(Cl)c3)C2)cc1` [S-(+) EMAC II l], the figure is 9124; as for `COc1ccc([C@@H]2CC(c3ccc(C)cc3)=NO2)cc1` [S-(+) EMAC II m], 342.6; as for `Cc1ccc(C2=NO[C@H](c3ccc(C)cc3)C2)cc1` [S-(+) EMAC II j], 3188^b.
Still for that read-out and setting: as for `Cc1ccc(C2=NO[C@@H](c3ccc(C)cc3)C2)cc1` [R-(−) EMAC II j], the figure is 39 216^b; as for `Cc1ccc(C2=NO[C@H](c3ccc(F)cc3)C2)cc1` [S-(+) EMAC II k], 2956^b; as for `COc1ccc([C@H]2CC(c3ccc(C)cc3)=NO2)cc1` [R-(−) EMAC II m], 792.6^b.
On the same count and under the same terms, as for `Cc1ccc(C2=NO[C@@H](c3ccc(Cl)cc3)C2)cc1` [R-(−) EMAC II i], the figure is 6549^b.

The same assay, now with this note: read-out: MAO-B (IC50); Table 3; mean ± SEM from five experiments.
`Cc1ccc(C2=NOC(c3ccc(F)cc3)C2)cc1` (racemic) [EMAC II k]: the half-inhibitory concentration (IC50) was 320 ± 13.6 nM.
The same measure, in the same setting: as for `Cc1ccc(C2=NOC(c3ccc(C)cc3)C2)cc1` (racemic) [EMAC II j], the figure is 41 ± 1.52 nM; as for `Cc1ccc(C2=NOC(c3ccc(Cl)c(Cl)c3)C2)cc1` (racemic) [EMAC II l], 12 ± 0.37 nM.
For `COc1ccc(C2CC(c3ccc(C)cc3)=NO2)cc1` (racemic) [EMAC II m], the 50% inhibitory concentration (IC50) worked out at 450 ± 18 nM.

The same assay, now with this note: read-out: MAO-B (IC50); Table 4, single enantiomers.
Regarding `Cc1ccc(C2=NO[C@H](c3ccc(Cl)cc3)C2)cc1` [S-(+) EMAC II i], the IC50 is more than 100000 nM.

Still in this assay, the particulars now being: read-out: MAO-B (IC50); Table 4, single enantiomers; mean ± SEM from five experiments.
For `Cc1ccc(C2=NO[C@@H](c3ccc(F)cc3)C2)cc1` [R-(−) EMAC II k], the concentration for half-maximal inhibition (IC50) is 300 ± 12 nM.
Regarding `COc1ccc([C@@H]2CC(c3ccc(C)cc3)=NO2)cc1` [S-(+) EMAC II m], the 50% inhibitory concentration (IC50) was 292 ± 13.4 nM.
For `Cc1ccc(C2=NO[C@@H](c3ccc(C)cc3)C2)cc1` [R-(−) EMAC II j], the IC50 was determined as 2.55 ± 0.11 nM.
On the same count and under the same terms, as for `COc1ccc([C@H]2CC(c3ccc(C)cc3)=NO2)cc1` [R-(−) EMAC II m], the figure is 126 ± 8.44 nM.

For the origin of these results see publication PMC6009968, “Through scaffold modification to 3,5-diaryl-4,5-dihydroisoxazoles: new potent and selective inhibitors of monoamine oxidase B” (Journal of Enzyme Inhibition and Medicinal Chemistry, 2017).
